Experimental data as given in PubChem BioAssay (NCI).
Several values for one entry are separate records, joined by “and”; a condition that tells them apart may be missing. Equal entries are not always repeated.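 Dose response: 5 concentrations. Exposure: 48 h. Format: 96-well plates. Endpoint: linear interpolation; highest concentration if not reached. GI50: concentration for 50% inhibition of growth. The concentration for full growth arrest is given as TGI.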

What was measured:
Assay in all cases: DTP human tumour cell line panel, 48 h
HCT-15 colon = tested on: HCT-15 colon
HOP-62 NSCLC = tested on: HOP-62 NSCLC
HOP-92 NSCLC = tested on: HOP-92 NSCLC
SK-MEL-2 melanoma = tested on: SK-MEL-2 melanoma
SK-MEL-28 melanoma = tested on: SK-MEL-28 melanoma
SN12C renal = tested on: SN12C renal
SNB-19 CNS = tested on: SNB-19 CNS
TK-10 renal = tested on: TK-10 renal
ACHN renal = tested on: ACHN renal
PC-3 prostate = tested on: PC-3 prostate

| Structure (SMILES) | TGI (HCT-15 colon) | TGI (HOP-62 NSCLC) | GI50 (HOP-92 NSCLC) | TGI (HOP-92 NSCLC) | GI50 (SK-MEL-2 melanoma) | TGI (SK-MEL-2 melanoma) | TGI (SK-MEL-28 melanoma) | GI50 (SN12C renal) | TGI (SN12C renal) | TGI (SNB-19 CNS) | GI50 (TK-10 renal) | TGI (TK-10 renal) | TGI (ACHN renal) | TGI (PC-3 prostate) | GI50 (ACHN renal) | GI50 (HCT-15 colon) | GI50 (PC-3 prostate) | GI50 (SK-MEL-28 melanoma) | GI50 (SNB-19 CNS) | GI50 (HOP-62 NSCLC) |
| --- | --- | --- | --- | --- | --- | --- | --- | --- | --- | --- | --- | --- | --- | --- | --- | --- | --- | --- | --- | --- |
| COc1cc(C2c3cc4c(cc3[C@@H](NC3CCN(Cc5ccccc5)CC3)C3COC(=O)[C@H]23)OCO4)cc(OC)c1O (stereo partly specified) | 0.536 µM and 0.432 µM | 0.206 µM and 0.146 µM | 0.143 µM and 0.026 µM | 0.73 µM and 0.0934 µM | 1.05 µM and 0.239 µM | 2.77 µM and 0.496 µM | 2.84 µM and 1.57 µM | 1.85 µM | 3.89 µM | 22.4 µM and 2.94 µM | 0.679 µM and 0.197 µM | 2.56 µM and 0.608 µM | – | – | – | – | – | – | – | – |
| CC(NNC(=S)N1CCN(c2ccccn2)CC1)c1nccc2ccccc12 (stereo unspecified) | 17.3 µM | 15.5 µM | – | 7.79 µM | – | 18.3 µM | 18.5 µM | – | 11.3 µM | 17 µM | – | 16.3 µM | 10.9 µM | 14.9 µM | – | – | – | – | – | – |
| CCC(=O)OCOc1ccc(/C=C2\CCC(CN(C)C)C2=O)cc1 (stereo unspecified) | 9.97 µM | 33.5 µM | – | 29.5 µM | – | 27.9 µM | 9.73 µM | – | 7.56 µM | 32.5 µM | – | 22.2 µM | 20.4 µM | 27.6 µM | – | – | – | – | – | – |
| COc1ccc(N=NC2=C(O)CCC2=O)cc1 | > 100 µM | > 100 µM | – | > 100 µM | – | > 100 µM | > 100 µM | – | > 100 µM | > 100 µM | – | > 100 µM | > 100 µM | – | – | – | – | – | – | – |
| CCN1CCN(c2ccc(NC(=O)Nc3nc4ccc(-c5ccccc5OC)cc4s3)cc2)CC1 | 2.47 µM | – | 1.47 µM | 3.75 µM | 1.94 µM | 3.61 µM | 3.26 µM | 1.77 µM | 3.37 µM | 3.65 µM | 2.12 µM | 3.6 µM | 3.11 µM | 3.47 µM | 1.74 µM | 1.2 µM | 1.79 µM | 1.76 µM | 2.03 µM | – |
| COc1cc2c(cc1OCC(=O)Nc1ccc(Cl)cc1C(=O)c1ccccc1Cl)N=CC1CCCN1C2=O (stereo unspecified) | 26 µM | 28.6 µM | 10.9 µM | 28.8 µM | 7.4 µM | 19.6 µM | 36.4 µM | 13.8 µM | 27.8 µM | 30.1 µM | 12.2 µM | 25.1 µM | 23.8 µM | 33.2 µM | 11.5 µM | 12.6 µM | 12.3 µM | 19.9 µM | 14.9 µM | 13.8 µM |
| Clc1ccc2c(NC3CCC(N4CCCCC4)CC3)ccnc2c1 (stereo unspecified) | > 100 µM | > 100 µM | – | 29.9 µM | – | 33.9 µM | 36.8 µM | – | > 100 µM | > 100 µM | – | 48.8 µM | > 100 µM | > 100 µM | – | – | – | – | – | – |
| C[C@@H]1CC[C@@H]2[C@@H]1[C@H](OC(=O)/C=C/C1CCCCC1)[C@]1(C3CCCCC3)C[C@@H](OC(=O)CO)[C@@]2(C)O1 | 26.7 µM | 27.5 µM | 7.14 µM | 19.6 µM | 15 µM | 28.5 µM | 29.6 µM | 0.0321 µM | 15.1 µM | 27 µM | 15.8 µM | 29.5 µM | – | 24.3 µM | – | 14 µM | 11.5 µM | 15.1 µM | 14.4 µM | 14.6 µM |
| Cc1[nH]nc(C(F)(F)F)c1Cc1sc2c(c1C(=O)N1C[C@](C)(O)CO1)c(=O)n(C)c(=O)n2C(C)C | > 100 µM | > 100 µM | > 100 µM | > 100 µM | > 100 µM | > 100 µM | > 100 µM | > 100 µM | > 100 µM | > 100 µM | > 100 µM | > 100 µM | > 100 µM | > 100 µM | > 100 µM | > 100 µM | > 100 µM | > 100 µM | > 100 µM | > 100 µM |
| CC(C)[C@@H](C(=O)O[C@@H]1/C=C/C(=O)O[C@@H](C)CCC/C=C/[C@@H]2C[C@H](O)C[C@H]21)N(C)C | 32.3 µM | > 100 µM | 0.0403 µM | 0.0954 µM | 23.1 µM | > 68.3 µM | 23.5 µM | 28.4 µM | > 62.1 µM | > 100 µM | 12.4 µM | 51.4 µM | > 100 µM | 61.6 µM | 38.4 µM | 16 µM | 6.77 µM | 6.03 µM | 37 µM | 22.3 µM |
| OC1OCC(COc2cc(Cl)c(Cl)cc2Cl)OC1O (stereo unspecified) | 44.6 µM | > 100 µM | – | 94.3 µM | – | – | > 100 µM | – | > 100 µM | > 100 µM | – | > 100 µM | > 100 µM | – | – | – | – | – | – | – |
| COc1ccc2c3ccnc(C(F)(F)F)c3n(CCCCN)c2c1 | 25 µM | 21.3 µM | – | – | 16.8 µM | 35.7 µM | 3.82 µM | 10.5 µM | 28.7 µM | 30.7 µM | 7.06 µM | 19.3 µM | 16.1 µM | 13.9 µM | 4.58 µM | 10.8 µM | 1.96 µM | 1.92 µM | 12.2 µM | 8.54 µM |
| C=CC1=C(C)C(/C=c2\[nH]/c(=C/c3[nH]c(CC4NC(=O)C(C)/C4=C\C)c(C)c3CCC(=O)O)c(CC(=O)O)c2C)=NC1=O (stereo unspecified) | > 100 µM | > 100 µM | – | > 100 µM | – | > 100 µM | > 100 µM | – | > 100 µM | > 100 µM | – | > 100 µM | > 100 µM | – | – | – | – | – | – | – |
| CC1(C)CC(=O)C(CC2C(=O)CCCC2=O)C(=O)C1 | > 100 µM | > 100 µM | – | – | – | > 100 µM | > 100 µM | – | > 100 µM | > 100 µM | – | > 100 µM | > 100 µM | – | – | – | – | – | – | – |
| O=C1c2ccccc2C(=O)N1CC#CCO | > 100 µM | > 100 µM | – | – | – | > 100 µM | > 100 µM | – | > 100 µM | > 100 µM | – | > 100 µM | > 100 µM | – | – | – | – | – | – | – |
| NC1CC(=O)c2c(-c3cccs3)sc(-c3cccs3)c21 (stereo unspecified) | 22.4 µM | > 100 µM | 16.6 µM | 66.2 µM | – | – | 39.7 µM | 24.3 µM | 69.8 µM | > 100 µM | 16.3 µM | 40.3 µM | 25.5 µM | > 100 µM | 10 µM | 3.04 µM | 30.8 µM | 19.2 µM | 36 µM | 73.4 µM |
